Data from patent US6737383B1, “Herbicidal oxadiazolidines” (priority 1999, dated 2004).

How the values were obtained:
bamyardgrass = test: Test B flood test barnyardgrass; format: in vivo, Echinochloa crus-galli
Method in brief: (§1)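 Flood test on plants grown to the 2-leaf stage; treated plants kept in greenhouse twelve to sixteen days, then visually rated against controls on a 0 (no effect) to 10 (complete control) scale.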

rape = test: Test B pre/postemergence rape; format: in vivo, Brassica napus; conditions: for Rape plant response rating (0 to 10 scale): 0 is no effect
Method in brief: (§2)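 Response is a visual 0-to-10 score relative to untreated plants, where 0 means no effect and 10 means complete control, taken twelve to sixteen days after application. Treatments went onto soil at planting and onto foliage of 1- to 4-leaf plants, using a surfactant-containing non-phytotoxic solvent.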

morningglory = test: Test B pre/postemergence morningglory; format: in vivo, Ipomoea hederacea; conditions: for Morningglory plant response rating (0 to 10 scale): 0 is no effect
Method in brief: as §2

smallflower flatsedge = test: Test B flood test smallflower flatsedge; format: in vivo, Cyperus difformis
Method in brief: as §1

[1] = Postemergence block (flood test species), Rate 250 g/ha, scale 0 to 10
[2] = Postemergence section (flood test species), Rate 500 g/ha, scale of 0 to 10 where 0 is no effect and 10 is complete control
[3] = Rate 125 g/ha, Postemergence section (flood test species), scale 0 to 10, 0 is no effect, 10 is complete control
[4] = Postemergence, Rate 250 g/ha, scale 0 to 10
[5] = Postemergence, Rate 500 g/ha, scale of 0 to 10 where 0 is no effect and 10 is complete control
[6] = Preemergence, Rate 62 g/ha, scale 0 to 10 (0 no effect, 10 complete control)
[7] = Preemergence, Rate 125 g/ha, scale of 0 to 10 where 0 is no effect and 10 is complete control
[8] = Preemergence, Rate 250 g/ha, scale 0 to 10, 0 is no effect, 10 is complete control
[9] = Preemergence, Rate 500 g/ha, scale 0 to 10, 0 is no effect, 10 is complete control
[10] = Rate 125 g/ha, Postemergence, scale 0 to 10, 0 is no effect, 10 is complete control
[11] = Rate 62 g/ha, headed Pre-emergence (flood test species), scale 0 to 10 (0 no effect, 10 complete control)
[12] = Rate 125 g/ha, Pre-emergence, flood test species, scale 0 to 10 where 0 is no effect and 10 is complete control
[13] = Rate 250 g/ha, Pre-emergence, flood-test species, scale 0 to 10, 0 is no effect, 10 is complete control
[14] = Rate 500 g/ha, headed Pre-emergence (flood test species), scale 0 to 10 (0 no effect, 10 complete control)
[15] = Preemergence, Rate 62 g/ha, scale of 0 to 10 where 0 is no effect and 10 is complete control
[16] = Preemergence, Rate 125 g/ha, 10 is complete control
[17] = Preemergence, Rate 500 g/ha, scale 0 to 10 (0 no effect, 10 complete control)
[18] = Rate 62 g/ha, Postemergence, scale of 0 to 10 where 0 is no effect and 10 is complete control
[19] = Rate 125 g/ha, Postemergence, scale 0 to 10
[20] = Rate 500 g/ha, Postemergence, scale 0 to 10
[21] = Rate 500 g/ha, Pre-emergence, flood test species, scale 0 to 10 (0 no effect, 10 complete control)

`C=C[Si](C)(C)Cn1c(=O)on(C(=O)N(c2ccc(Cl)cc2)C(C)C)c1=O` [Compound 425] was tested, and the “Barnyardgrass plant response rating” value (bamyardgrass; [1]) was 1, the “Barnyardgrass plant response rating” value (bamyardgrass; [2]) was 7 and the “Barnyardgrass plant response rating” value (bamyardgrass; Rate 62 g/ha, Postemergence (flood test species), scale of 0 to 10 where 0 is no effect and 10 is complete control) was 0. For the same compound, the “Barnyardgrass plant response rating” value (bamyardgrass; [3]) was 0, the “Rape plant response rating” value (rape; [4]) was 2 and the “Rape plant response rating” value (rape; [5]) was 3. The “Plant response rating, Rape” value (rape; [6]) was 0, the “Plant response rating, Rape” value (rape; [7]) was 2 and the “Rape plant response rating” value (rape; [8]) was 2. For the same compound, the “Rape plant response rating” value (rape; [9]) was 10, the “Rape plant response rating” value (rape; [10]) was 0 and the “Morningglory plant response rating” value (morningglory; [4]) was 6. The “Morningglory plant response rating” value (morningglory; [5]) was 10, the “Plant response rating, Morningglory” value (morningglory; [6]) was 0 and the “Plant response rating, Morningglory” value (morningglory; [7]) was 0. The “Morningglory plant response rating” value (morningglory; [8]) was 2, the “Morningglory plant response rating” value (morningglory; [9]) was 4 and the “Morningglory plant response rating” value (morningglory; [10]) was 5. For the same compound, the “S. Flatsedge plant response rating” value (smallflower flatsedge; [1]) was 2, the “S. Flatsedge plant response rating” value (smallflower flatsedge; [2]) was 6 and the “S. Flatsedge plant response rating” value (smallflower flatsedge; [3]) was 0.

With `COc1nc(OC)nc(N(C(=O)n2oc(=O)n(-c3c(C)cccc3C)c2=O)C(C)C)n1` [Compound 180] the “Barnyardgrass plant response rating” value (bamyardgrass; [11]) was 0, the “Barnyardgrass plant response rating” value (bamyardgrass; [12]) was 0 and the “Barnyardgrass plant response rating” value (bamyardgrass; [13]) was 0. The “Plant response rating, Barnyardgrass” value (bamyardgrass; [14]) was 0, the “Rape plant response rating” value (rape; [15]) was 0 and the “Rape plant response rating (0 to 10 scale)” value (rape; [16]) was 0. The “Rape plant response rating” value (rape; [8]) was 0, the “Rape plant response rating” value (rape; [17]) was 0 and the “Rape plant response rating” value (rape; [18]) was 0. For the same compound, the “Rape plant response rating” value (rape; [19]) was 0, the “Plant response rating (0 to 10; 0 is no effect, 10 is complete control), Rape” value (rape; Rate 250 g/ha, Postemergence) was 0 and the “Rape plant response rating” value (rape; [20]) was 0. For the same compound, the “Morningglory plant response rating” value (morningglory; [15]) was 0, the “Morningglory plant response rating (0 to 10 scale)” value (morningglory; [16]) was 0 and the “Morningglory plant response rating” value (morningglory; [8]) was 0. The “Morningglory plant response rating” value (morningglory; [17]) was 0, the “Morningglory plant response rating” value (morningglory; [18]) was 0 and the “Morningglory plant response rating” value (morningglory; [19]) was 0. For the same compound, the “Plant response rating (0 to 10; 0 is no effect, 10 is complete control), Morningglory” value (morningglory; Rate 250 g/ha, Postemergence) was 0, the “Morningglory plant response rating” value (morningglory; [20]) was 0 and the “S. Flatsedge plant response rating” value (smallflower flatsedge; [11]) was 0. The “S. Flatsedge plant response rating” value (smallflower flatsedge; [12]) was 0, the “S. Flatsedge plant response rating” value (smallflower flatsedge; [13]) was 0 and the “S. Flatsedge plant response rating” value (smallflower flatsedge; [21]) was 0.

`CCN(Cc1ccncc1)C(=O)n1oc(=O)n(C(C)C)c1=O` [Compound 189] was tested, and the “Barnyardgrass plant response rating” value (bamyardgrass; [11]) was 0, the “Barnyardgrass plant response rating” value (bamyardgrass; [12]) was 0 and the “Barnyardgrass plant response rating” value (bamyardgrass; [13]) was 0. The “Plant response rating, Barnyardgrass” value (bamyardgrass; [14]) was 0, the “Rape plant response rating” value (rape; [15]) was 0 and the “Rape plant response rating (0 to 10 scale)” value (rape; [16]) was 0. The “Rape plant response rating” value (rape; [8]) was 0, the “Rape plant response rating” value (rape; [17]) was 0 and the “Rape plant response rating” value (rape; [18]) was 0. For the same compound, the “Rape plant response rating” value (rape; [19]) was 0, the “Plant response rating (0 to 10; 0 is no effect, 10 is complete control), Rape” value (rape; Rate 250 g/ha, Postemergence) was 0 and the “Rape plant response rating” value (rape; [20]) was 0. For the same compound, the “Morningglory plant response rating” value (morningglory; [15]) was 0, the “Morningglory plant response rating (0 to 10 scale)” value (morningglory; [16]) was 0 and the “Morningglory plant response rating” value (morningglory; [8]) was 0. The “Morningglory plant response rating” value (morningglory; [17]) was 0, the “Morningglory plant response rating” value (morningglory; [18]) was 0 and the “Morningglory plant response rating” value (morningglory; [19]) was 0. The “Plant response rating (0 to 10; 0 is no effect, 10 is complete control), Morningglory” value (morningglory; Rate 250 g/ha, Postemergence) was 0, the “Morningglory plant response rating” value (morningglory; [20]) was 0 and the “S. Flatsedge plant response rating” value (smallflower flatsedge; [11]) was 0. For the same compound, the “S. Flatsedge plant response rating” value (smallflower flatsedge; [12]) was 0, the “S. Flatsedge plant response rating” value (smallflower flatsedge; [13]) was 0 and the “S. Flatsedge plant response rating” value (smallflower flatsedge; [21]) was 0.
